Laboratory results published in patent US10294202B2, “Pyrrolidinones as herbicides” (FMC Corporation, priority 2013, dated 2019).

What was measured:
soybean (GLXMA) = assay: Test H preemergence mixture test (Colby); assay type: in vivo, Glycine max; settings: for Plant response rating, Obsd., GLXMA: 21 d after treatment, scale 0 to 100; for GLXMA Obsd.: applied alone, 21 d, mean of three replicates, scale 0-100
Text: Colby's Equation was used to determine the herbicidal effects expected from the mixtures. Colby's Equation (Colby, S. R. “Calculating Synergistic and Antagonistic Responses of Herbicide Combinations,” Weeds, 15(1), pp 20-22 (1967)) calculates the expected additive effect of herbicidal mixtures and for two active ingredients is of the form: Pa+b=Pa+Pb−(PaPb/100)
where • Pa+b is the percentage effect of the mixture expected from additive contribution of the individual components: • Pa is the observed percentage effect of the first active ingredient at the same use rate as in the mixture, and • Pb is the observed percentage effect of the second active ingredient at the same use rate as in the mixture. In the following Tables, rates are shown in grams of active ingredient per hectare (g a.i./ha); “Obsd.” is the observed effect. “Exp.” is the expected effect calculated from Colby's Equation.
This test evaluated the effect of mixtures of compound 80 with several commercial herbicides on four plant species. Seeds of plant species selected from corn (ZEAMD, Zea mays), soybean (GLXMA, Glycine max), waterhemp (common waterhemp, AMATA, Amaranthus rudis), and giant foxtail (SETFA, Setaria faberii) were planted into a silt loam soil and treated preemergence with test chemicals formulated in a non-phytotoxic solvent mixture which included a surfactant and applied using a volume of 281 L/ha. Each treatment was replicated three times. Treated plants and controls were maintained in a greenhouse using supplemental lighting to maintain a photoperiod of about 16 h; daytime and nighttime temperatures were about 24-30° C. and 19-21° C., respectively. Nutrients were applied using a balanced fertilizer applied through the watering system. At 21 d after treatment, all species were compared to controls and visually evaluated. Plant response ratings were calculated as the means of the three replicates, are summarized in Tables H1 through H5, and are based on a scale of 0 to 100 where 0 is no effect and 100 is complete control. A dash (-) response means no test result. The Expected (Exp.) results were calculated using Colby's Equation as described for Test G above.

giant foxtail (SETFA) = assay: Test H preemergence mixture test (Colby); assay type: in vivo, Setaria faberii; settings: for Plant response rating, Obsd., SETFA: 21 d after treatment, scale 0 to 100; for SETFA Obsd.: applied alone, 21 d, mean of three replicates, scale 0-100
waterplantain = assay: Test F flood (paddy) test; assay type: in vivo, Alisma plantago-aquatica; settings: 21 d, scale 0-100
Text: Three plastic pots (ca. 16-cm diameter) per rate were partially filled with sterilized Tama silt loam soil comprising a 35:50:15 ratio of sand, silt and clay and 2.6% organic matter. Separate plantings for each of the three pots were as follows. Seeds from the U.S. of monochoria (Monochoria vaginalis), sedge, umbrella (small-flower umbrella sedge, Cyperus difformis), bulrush, […] bulrush, Scirpus juncoides), and […] (purple […] coccinea), were planted into one 16-cm pot for each rate. Seeds from the U.S. of flatsedge, rice (rice flatsedge, Cyperus iria), sprangletop, Brdd. (bearded sprangletop, Leptochloa fascicularis), one stand of 9 or 10 water seeded rice seedlings (Rice, W.S. Jap, Oryza sativa cv. 'Japonica-[…]' or Rice, W.S. Ind, 'Indica'), and two stands of 3 or 4 seedlings of rice, transplanted (transplanted rice, Oryza sativa cv. 'Japonica-[…]') were planted into one 16-cm pot for each rate. Seeds from the U.S. of barnyardgrass (Echinochloa crus-galli), […] (common […], Alisma plantago-aquatica), and watergrass, late (late watergrass, Echinochloa oryzicola) were planted into one 16-cm pot for each rate. Plantings were sequential so that crop and weed species were at the 2.0 to 2.5-leaf stage at time of treatment. Potted plants were grown in a greenhouse with day/night temperature settings of 30/27° C., and supplemental balanced lighting was provided to maintain a 16-h photoperiod. Test pots were maintained in the greenhouse until test completion. At time of treatment, test pots were flooded to 3 cm above the soil surface, treated by application of test compounds directly to the paddy water, and then maintained at that water depth for the duration of the test. Effects of treatments on rice and weeds were visually evaluated by comparison to untreated controls after 21 d. Plant response ratings, summarized in Table F, are based on a scale of 0 to 100 where 0 is no effect and 100 is complete control. A dash (-) response means no test result.

barnyardgrass (ECHCG) = assay: Test G paddy mixture test (Colby); assay type: in vivo, Echinochloa crus-galli; settings: applied alone, 14 d; for ECHCG Obsd.: scale 0-100; for ECHCG Obsd. plant response rating (scale 0 to 100): flooded
Description: Seeds of small-flower umbrella […], Cyperus difformis) and […], Heteranthera limosa) were sown on the soil surface in two separate quadrants of 11-cm (4-inch) tubs filled with steam pasteurized Tama soil. Simultaneously, plantings of […], Echinochloa crus-galli) and transplanted japonica rice (ORYSA, Oryza sativa) were established in separate “plug” flats. […] Herbicide application timing was targeted at the 2.0 to 2.5 leaf stage and the plants were treated with test chemicals formulated in a non-phytotoxic solvent. Treated plants and controls were maintained in a greenhouse for 14 d, after which time all species were compared to controls and visually evaluated. Plant response ratings are summarized in Tables G1 through G12, and are based on a scale of 0 to 100 where 0 is no effect and 100 is complete control. A dash (-) response means no test result. Colby's Equation was used to determine the herbicidal effects expected from the mixtures. Colby's Equation (Colby, S. R. “Calculating Synergistic and Antagonistic Responses of Herbicide Combinations,” Weeds, 15(1), pp 20-22 (1967)) calculates the expected additive effect of herbicidal mixtures and for two active ingredients is of the form: Pa+b=Pa+Pb-(PaPb/100) where • Pa+b is the percentage effect of the mixture expected from additive contribution of the individual components: • Pa is the observed percentage effect of the first active ingredient at the same use rate as in the mixture, and • Pb is the observed percentage effect of the second active ingredient at the same use rate as in the mixture. In the following Tables, rates are shown in grams of active ingredient per […]); “Obsd.” is the observed effect. “Exp.” is the expected effect calculated from Colby's Equation.

O=C1NCC(c2ccc(C(F)(F)F)cc2)C1C(=O)Nc1cccc(F)c1F (centres unmarked) [Compound 80, N-(2,3-difluorophenyl)-2-oxo-4-[4-(trifluoromethyl)phenyl]-3-pyrrolidinecarboxamide]
Plant response rating, Obsd., GLXMA (soybean (GLXMA); Cmpd 80 alone 62 g a.i./ha): 12
Plant response rating, Obsd., GLXMA (soybean (GLXMA); Cmpd 80 alone 125 g a.i./ha): 0
GLXMA Obsd. (soybean (GLXMA); 62 g a.i./ha): 12
GLXMA Obsd. (soybean (GLXMA); 125 g a.i./ha): 0
Plant response rating, Obsd., SETFA (giant foxtail (SETFA); Cmpd 80 alone 62 g a.i./ha): 52
Plant response rating, Obsd., SETFA (giant foxtail (SETFA); Cmpd 80 alone 125 g a.i./ha): 78
SETFA Obsd. (giant foxtail (SETFA); 62 g a.i./ha): 52
SETFA Obsd. (giant foxtail (SETFA); 125 g a.i./ha): 78

O=C1NCCC1C(=O)N(c1ccc(F)c(F)c1)c1ccccc1F (centres unmarked) [Compound 5, N-(3,4-difluorophenyl)-N-(2-fluorophenyl)-2-oxo-3-pyrrolidinecarboxamide]
Plant response rating, Waterplantain (waterplantain; 125 g ai/ha): 55
Plant response rating, Waterplantain (waterplantain; 250 g ai/ha): 70
Plant response rating, Waterplantain (waterplantain; 500 g ai/ha): 80
Plant response rating, Waterplantain (waterplantain; 1000 g ai/ha): 85
Plant response rating, Waterplantain (waterplantain; 2000 g ai/ha): 90

O=C1NC[C@H](c2cccc(C(F)(F)F)c2)[C@H]1C(=O)Nc1ccccc1F [Compound 204, (3R,4S)—N-(2-fluorophenyl)-2-oxo-4-[3-(trifluoromethyl)phenyl]-3-pyrrolidinecarboxamide]
ECHCG Obsd. (barnyardgrass (ECHCG); 125 g a.i./ha): 65
ECHCG Obsd. plant response rating (scale 0 to 100) (barnyardgrass (ECHCG); 125 g a.i./ha): 65
ECHCG Obsd. (barnyardgrass (ECHCG); 500 g a.i./ha): 90
ECHCG Obsd. plant response rating (scale 0 to 100) (barnyardgrass (ECHCG); 500 g a.i./ha): 90
